Results published in ChEMBL document CHEMBL1201862, “PubChem BioAssay data set” (2004).
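Values below derive from 48-hour exposures of cells grown in 96-well plates, with endpoints linearly interpolated between the two concentrations bracketing the appropriate inhibition level. Abbreviation: GI50, concentration required for 50% inhibition of growth.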 Calls of active or inactive are those of the source. Rule as the data show it: active = GI50 up to about 1.1 µM and inactive = higher.

Legend:
Assay in all cases: inhibition of tumour cell growth, NCI panel, 48 h
786-0 = tested on: 786-0
A498 = tested on: A498
ACHN = tested on: ACHN
BT-549 = tested on: BT-549
CCRF-CEM = tested on: CCRF-CEM
COLO 205 = tested on: COLO 205
DLD-1 = tested on: DLD-1
DMS-114 = tested on: DMS-114
DMS-273 = tested on: DMS-273
DU-145 = tested on: DU-145
EKVX = tested on: EKVX
HCC 2998 = tested on: HCC 2998
HCT-116 = tested on: HCT-116
HCT-15 = tested on: HCT-15
HL-60 = tested on: HL-60
HOP-62 = tested on: HOP-62
HOP-92 = tested on: HOP-92
Hs-578T = tested on: Hs-578T
IGROV-1 = tested on: IGROV-1
K562 = tested on: K562
KM-20L2 = tested on: KM-20L2
KM12 = tested on: KM12
LOX IMVI = tested on: LOX IMVI
LXFL 529 = tested on: LXFL 529
M14 = tested on: M14
M19-MEL = tested on: M19-MEL
MCF7 = tested on: MCF7
MDA-MB-231 = tested on: MDA-MB-231
MDA-MB-435 = tested on: MDA-MB-435
MDA-N = tested on: MDA-N
MOLT-4 = tested on: MOLT-4
Malme-3M = tested on: Malme-3M
NCI-H226 = tested on: NCI-H226
NCI-H23 = tested on: NCI-H23
NCI-H460 = tested on: NCI-H460
NCI-H522 = tested on: NCI-H522
NCI/ADR-RES = tested on: NCI/ADR-RES
OVCAR-3 = tested on: OVCAR-3
OVCAR-4 = tested on: OVCAR-4
OVCAR-5 = tested on: OVCAR-5
OVCAR-8 = tested on: OVCAR-8
PC-3 = tested on: PC-3
RPMI-8226 = tested on: RPMI-8226
RXF 393 = tested on: RXF 393
SF-268 = tested on: SF-268
SF-295 = tested on: SF-295
SK-MEL-28 = tested on: SK-MEL-28
SK-MEL-2 = tested on: SK-MEL-2
SK-MEL-5 = tested on: SK-MEL-5
SK-OV-3 = tested on: SK-OV-3
SN12C = tested on: SN12C
SNB-19 = tested on: SNB-19
SNB-75 = tested on: SNB-75
SNB-78 = tested on: SNB-78
SR = tested on: SR
T47D = tested on: T47D
TK-10 = tested on: TK-10
U-251 = tested on: U-251
UACC-257 = tested on: UACC-257
UACC-62 = tested on: UACC-62
UO-31 = tested on: UO-31
XF498 = tested on: XF498
A549 = tested on: A549
CAKI-1 = tested on: CAKI-1
HOP-18 = tested on: HOP-18
HT-29 = tested on: HT-29
SF-539 = tested on: SF-539
SW-620 = tested on: SW-620

OCC1OC(n2cnc3c2NC=NC[C@H]3O)CC1O (stereo partly drawn)
GI50 (786-0): 455 µM (inactive)
GI50 (A498): 422 µM (inactive)
GI50 (ACHN): 400 µM (inactive)
GI50 (BT-549): > 500 µM (inactive)
GI50 (CCRF-CEM): 392 µM (inactive)
GI50 (COLO 205): 472 µM (inactive)
GI50 (DLD-1): 494 µM (inactive)
GI50 (DMS-114): 426 µM (inactive)
GI50 (DMS-273): 489 µM (inactive)
GI50 (DU-145): 324 µM (inactive)
GI50 (EKVX): 489 µM (inactive)
GI50 (HCC 2998): 387 µM (inactive)
GI50 (HCT-116): 483 µM (inactive)
GI50 (HCT-15): > 500 µM
GI50 (HL-60): 417 µM (inactive)
GI50 (HOP-62): 417 µM (inactive)
GI50 (HOP-92): 398 µM (inactive)
GI50 (Hs-578T): > 500 µM (inactive)
GI50 (IGROV-1): 450 µM (inactive)
GI50 (K562): 469 µM (inactive)
GI50 (KM-20L2): > 500 µM (inactive)
GI50 (KM12): 495 µM (inactive)
GI50 (LOX IMVI): 463 µM (inactive)
GI50 (LXFL 529): > 500 µM (inactive)
GI50 (M14): 418 µM (inactive)
GI50 (M19-MEL): 354 µM (inactive)
GI50 (MCF7): 441 µM (inactive)
GI50 (MDA-MB-231): > 500 µM (inactive)
GI50 (MDA-MB-435): > 500 µM (inactive)
GI50 (MDA-N): > 500 µM (inactive)
GI50 (MOLT-4): 418 µM (inactive)
GI50 (Malme-3M): 458 µM (inactive)
GI50 (NCI-H226): 484 µM (inactive)
GI50 (NCI-H23): 486 µM (inactive)
GI50 (NCI-H460): 418 µM (inactive)
GI50 (NCI-H522): 444 µM (inactive)
GI50 (NCI/ADR-RES): 462 µM (inactive)
GI50 (OVCAR-3): 497 µM (inactive)
GI50 (OVCAR-4): 470 µM (inactive)
GI50 (OVCAR-5): > 500 µM (inactive)
GI50 (OVCAR-8): 489 µM (inactive)
GI50 (PC-3): > 500 µM (inactive)
GI50 (RPMI-8226): 478 µM (inactive)
GI50 (RXF 393): 484 µM (inactive)
GI50 (SF-268): 472 µM (inactive)
GI50 (SF-295): 448 µM (inactive)
GI50 (SK-MEL-28): 493 µM (inactive)
GI50 (SK-MEL-2): 497 µM (inactive)
GI50 (SK-MEL-5): 483 µM (inactive)
GI50 (SK-OV-3): 467 µM (inactive)
GI50 (SN12C): 483 µM (inactive)
GI50 (SNB-19): 479 µM (inactive)
GI50 (SNB-75): 337 µM (inactive)
GI50 (SNB-78): 483 µM (inactive)
GI50 (SR): 359 µM (inactive)
GI50 (T47D): 258 µM (inactive)
GI50 (TK-10): > 500 µM (inactive)
GI50 (U-251): 480 µM (inactive)
GI50 (UACC-257): 407 µM (inactive)
GI50 (UACC-62): 415 µM (inactive)
GI50 (UO-31): 460 µM (inactive)
GI50 (XF498): 442 µM (inactive)

COc1ccc(S(=O)(=O)NC(C)C(=O)O)cc1 (stereo not drawn)
GI50 (786-0): > 100 µM (inactive)
GI50 (A498): > 100 µM (inactive)
GI50 (A549): > 100 µM (inactive)
GI50 (ACHN): > 100 µM (inactive)
GI50 (CAKI-1): > 100 µM (inactive)
GI50 (CCRF-CEM): > 100 µM (inactive)
GI50 (COLO 205): > 100 µM (inactive)
GI50 (DLD-1): > 100 µM (inactive)
GI50 (DMS-273): > 100 µM (inactive)
GI50 (EKVX): > 100 µM (inactive)
GI50 (HCT-15): > 100 µM
GI50 (HL-60): > 100 µM (inactive)
GI50 (HOP-18): > 100 µM (inactive)
GI50 (HOP-92): > 100 µM (inactive)
GI50 (HT-29): > 100 µM (inactive)
GI50 (IGROV-1): > 100 µM (inactive)
GI50 (K562): > 100 µM (inactive)
GI50 (KM-20L2): > 100 µM (inactive)
GI50 (KM12): > 100 µM (inactive)
GI50 (LOX IMVI): > 100 µM (inactive)
GI50 (LXFL 529): > 100 µM (inactive)
GI50 (M14): > 100 µM (inactive)
GI50 (M19-MEL): > 100 µM (inactive)
GI50 (MOLT-4): > 100 µM (inactive)
GI50 (Malme-3M): > 100 µM (inactive)
GI50 (NCI-H23): > 100 µM (inactive)
GI50 (NCI-H460): > 100 µM (inactive)
GI50 (NCI-H522): > 100 µM (inactive)
GI50 (OVCAR-3): > 100 µM (inactive)
GI50 (OVCAR-4): > 100 µM (inactive)
GI50 (OVCAR-5): > 100 µM (inactive)
GI50 (OVCAR-8): > 100 µM (inactive)
GI50 (RPMI-8226): > 100 µM (inactive)
GI50 (RXF 393): > 100 µM (inactive)
GI50 (SF-268): > 100 µM (inactive)
GI50 (SF-295): > 100 µM (inactive)
GI50 (SF-539): > 100 µM (inactive)
GI50 (SK-MEL-28): > 100 µM (inactive)
GI50 (SK-MEL-2): > 100 µM (inactive)
GI50 (SK-MEL-5): > 100 µM (inactive)
GI50 (SK-OV-3): > 100 µM (inactive)
GI50 (SN12C): > 100 µM (inactive)
GI50 (SNB-19): > 100 µM (inactive)
GI50 (SNB-75): 70.5 µM (inactive)
GI50 (SW-620): > 100 µM (inactive)
GI50 (TK-10): > 100 µM (inactive)
GI50 (U-251): > 100 µM (inactive)
GI50 (UACC-257): > 100 µM (inactive)
GI50 (UACC-62): > 100 µM (inactive)
GI50 (UO-31): > 100 µM (inactive)
GI50 (XF498): 21.9 µM (inactive)
